The source of these data is patent US8168632B2, “Bicyclic amide derivatives for the treatment of respiratory disorders” (Cortex Pharmaceuticals, Inc., priority 2007, dated 2012).

The assay has as its system AMPA receptor. The assay can be described thus: In vivo electrophysiology (field EPSP in dentate gyrus of anesthetized animals). To be noted: 10 mpk i.p., perforant path stimulation. Here is the method:
The electrophysiological effects of the invention compounds were tested in vivo in anesthetized animals according to the following procedures. Animals are maintained under anesthesia by phenobarbital administered using a Hamilton syringe pump. Stimulating and recording electrodes are inserted into the perforant path and dentate gyrus of the hippocampus, respectively. Once electrodes are implanted, a stable baseline of evoked responses are elicited using single monophasic pulses (100 μs pulse duration) delivered at 3/min to the stimulating electrode. Field EPSPs are monitored until a stable baseline is achieved (about 20-30 min), after which a solution of test compound is injected intraperitoneally and evoked field potentials are recorded. Evoked potentials were recorded for approximately 2 h following drug administration or until the amplitude of the field EPSP returns to baseline. In the latter instance, it is common that an iv administration is also carried out with an appropriate dose of the same test compound. Invention compounds were assayed in the in vivo electrophysiology assay described above and data for representative test compounds is shown in the Table.
The electrophysiological effects of invention compounds were tested in vivo in anesthetized animals according to the following procedures.
Animals are maintained under anesthesia by phenobarbital administered using a Hamilton syringe pump. Stimulating and recording electrodes are inserted into the perforant path and dentate gyrus of the hippocampus, respectively. Once electrodes are implanted, a stable baseline of evoked responses are elicited using single monophasic pulses (100 μs pulse duration) delivered at 3/min to the stimulating electrode. Field EPSPs are monitored until a stable baseline is achieved (about 20-30 min), after which a solution of test compound is injected intraperitoneally and evoked field potentials are recorded. Evoked potentials are recorded for approximately 2 h following drug administration or until the amplitude of the field EPSP returns to baseline. […]
Regarding `O=C(c1ccc2nonc2c1)N1C2CCC1COC2` [Example 1, [2,1,3]-Benzoxadiazol-5-yl(3-oxa-8-azabicyclo[3.2.1]oct-8-yl)methanone], the “In vivo Electrophysiology: % increase in the amplitude of the field EPSP in the dentate gyrus of rat” value (“In vivo Electrophysiology: % increase” below) is 17%.

Take `O=C(c1ccc2nonc2c1)N1C2CCCC1COC2` [Example 2, [2,1,3]-Benzoxadiazol-5-yl(3-oxa-9-azabicyclo[3.3.1]non-9-yl)methanone]: the “In vivo Electrophysiology: % increase” value is recorded as 16%.

Regarding `O=C(c1ccc2nonc2c1)N1C2COCC1COC2` [Example 3, [2,1,3]-Benzoxadiazol-5-yl(3,7-dioxa-9-azabicyclo[3.3.1]non-9-yl)methanone], the “In vivo Electrophysiology: % increase” value was 15%.
